Reference: patent US20260232767A1, “INTERLEUKIN-23 RECEPTOR ANTAGONIST PEPTIDES FOR USE IN THE TREATMENT OF PSORIASIS” (Janssen Pharmaceutica NV, priority 2023, published 2026)

Test system: subjects with moderate-to-severe plaque psoriasis
Assay: Safety, adverse events, Example 2 through Week 56
Format: in vivo, human
Settings: through Week 56
Excerpt: The LTE safety analysis was based on randomized participants in Example who entered the present long-term extension study and received at least one dose of study intervention (including a partial dose) during the study period.

[1] = Placebo → 100 mg QD after crossover

CC(=O)NCCCC[C@@H]1NC(=O)[C@H](Cc2c[nH]c3c(C)cccc23)NC(=O)[C@H]([C@@H](C)O)NC(=O)[C@H](CC(N)=O)NC(=O)[C@@H](NC(C)=O)C(C)(C)SSC(C)(C)[C@@H](C(=O)N[C@@H](Cc2ccc(OCCN)cc2)C(=O)N[C@@H](Cc2ccc3ccccc3c2)C(=O)NC2(C(=O)N[C@@H](CCC(=O)O)C(=O)N[C@@H](CC(N)=O)C(=O)N[C@@H](Cc3cccnc3)C(=O)N(C)CC(N)=O)CCOCC2)NC1=O [IL-23 receptor antagonist peptide, Ac-[Pen]*-N-T-[W(7-Me)]-[Lys(Ac)]-[Pen]*-Phe[4-(2-aminoethoxy)]-[2-Nal]-[THP]-E-N-[3-Pal]-Sarc-NH2 (*[Pen]-[Pen]* formdisulfidebond)]
(16.3%): Subjects with 1 or more Adverse events: Upper respiratory tract infection (25 mg QD)
(3.2%): Subjects with 1 or more Adverse events: Arthralgia (Combined) | Subjects with 1 or more Adverse events: Cough (Combined) | Subjects with 1 or more Adverse events: Urinary tract infection (Combined)
(4.0%): Subjects with 1 or more treatment-emergent adverse events leading to discontinuation of study agent (Combined)
(11.4%): Subjects with 1 or more Adverse events: Upper respiratory tract infection [1]
(19.5%): Subjects with 1 or more Adverse events: Nasopharyngitis (25 mg BID)
(9.7%): Subjects with 1 or more Adverse events: Upper respiratory tract infection (Combined)
(30.2%): Subjects with 1 or more Adverse events: Nasopharyngitis (50 mg QD)
(11.6%): Subjects with 1 or more Adverse events: COVID-19 (100 mg QD) | Subjects with 1 or more Adverse events: Headache (100 mg QD)
(4.9%): Subjects with 1 or more Adverse events: Bronchitis (25 mg BID) | Subjects with 1 or more Adverse events: Diarrhea (25 mg BID) | Subjects with 1 or more treatment-emergent adverse events leading to discontinuation of study agent (25 mg BID) | Subjects with 1 or more Adverse events: Headache (Combined)
(74.4%): Subjects with 1 or more Adverse events (50 mg QD)
(3.6%): Subjects with 1 or more Adverse events: Alanine aminotransferase increased (Combined) | Subjects with 1 or more Adverse events: Bronchitis (Combined)
(11.9%): Subjects with 1 or more Adverse events: Nasopharyngitis (100 mg BID) | Subjects with 1 or more Adverse events: Upper respiratory tract infection (100 mg BID)
(2.3%): Subjects with 1 or more Adverse events: Alanine aminotransferase increased (25 mg QD) | Subjects with 1 or more Adverse events: Arthralgia (25 mg QD) | Subjects with 1 or more Adverse events: Aspartate aminotransferase increased (25 mg QD) | Subjects with 1 or more Adverse events: Cough (25 mg QD) | Subjects with 1 or more Adverse events: Alanine aminotransferase increased (50 mg QD) | Subjects with 1 or more Adverse events: Arthralgia (50 mg QD) | Subjects with 1 or more Adverse events: Aspartate aminotransferase increased (50 mg QD) | Subjects with 1 or more Adverse events: Headache (50 mg QD) | Subjects with 1 or more Adverse events: Influenza (50 mg QD) | Subjects with 1 or more Adverse events: Urinary tract infection (50 mg QD) | Subjects with 1 or more Serious adverse events: Coronary artery disease (50 mg QD) | Subjects with 1 or more Serious adverse events: Foot deformity (50 mg QD) | Subjects with 1 or more Serious adverse events: Infected cyst (50 mg QD) | Subjects with 1 or more Serious adverse events: Non-cardiac chest pain (50 mg QD) | Subjects with 1 or more Adverse events: Diarrhea (100 mg QD) | Subjects with 1 or more Adverse events: Influenza (100 mg QD) | Subjects with 1 or more Serious adverse events: COVID-19 (100 mg QD) | Subjects with 1 or more Serious adverse events: Diverticulitis (100 mg QD) | Subjects with 1 or more Serious adverse events: Intervertebral disc protrusion (100 mg QD) | Subjects with 1 or more Serious adverse events: Suicide attempt (100 mg QD)
(19.8%): Subjects with 1 or more Adverse events: Nasopharyngitis (Combined)
(76.2%): Subjects with 1 or more Adverse events (100 mg BID)
(14.0%): Subjects with 1 or more Adverse events: COVID-19 (25 mg QD) | Subjects with 1 or more Adverse events: COVID-19 (50 mg QD)
(0.4%): Subjects with 1 or more Serious adverse events: COVID-19 (Combined) | Subjects with 1 or more Serious adverse events: Cerebrovascular accident (Combined) | Subjects with 1 or more Serious adverse events: Coronary artery disease (Combined) | Subjects with 1 or more Serious adverse events: Diverticulitis (Combined) | Subjects with 1 or more Serious adverse events: Foot deformity (Combined) | Subjects with 1 or more Serious adverse events: Infected cyst (Combined) | Subjects with 1 or more Serious adverse events: Intervertebral disc protrusion (Combined) | Subjects with 1 or more Serious adverse events: Ligament injury (Combined) | Subjects with 1 or more Serious adverse events: Non-cardiac chest pain (Combined) | Subjects with 1 or more Serious adverse events: Suicide attempt (Combined) | Subjects with 1 or more Serious adverse events: Tonsillar hypertrophy (Combined) | Subjects with 1 or more Serious adverse events: Uterine leiomyoma (Combined) | Subjects with 1 or more Serious adverse events: Ventricular dysfunction (Combined)
(2.8%): Subjects with 1 or more Adverse events: Aspartate aminotransferase increased (Combined) | Subjects with 1 or more Adverse events: Influenza (Combined)
(7.1%): Subjects with 1 or more Adverse events: Aspartate aminotransferase increased (100 mg BID)
(4.8%): Subjects with 1 or more Adverse events: Arthralgia (100 mg BID) | Subjects with 1 or more Adverse events: Cough (100 mg BID) | Subjects with 1 or more Adverse events: Urinary tract infection (100 mg BID)
(4.5%): Subjects with 1 or more Adverse events: Diarrhea (Combined) | Subjects with 1 or more Serious adverse events (Combined)
(9.5%): Subjects with 1 or more Adverse events: Alanine aminotransferase increased (100 mg BID)
(70.4%): Subjects with 1 or more Adverse events (Combined)
(25.7%): Subjects with 1 or more Adverse events: Nasopharyngitis [1]
(7.3%): Subjects with 1 or more Adverse events: Headache (25 mg BID) | Subjects with 1 or more Adverse events: Influenza (25 mg BID) | Subjects with 1 or more Adverse events: Upper respiratory tract infection (25 mg BID) | Subjects with 1 or more Serious adverse events (25 mg BID)
(14.2%): Subjects with 1 or more Adverse events: COVID-19 (Combined)
(4.7%): Subjects with 1 or more Adverse events: Bronchitis (25 mg QD) | Subjects with 1 or more Adverse events: Diarrhea (25 mg QD) | Subjects with 1 or more Adverse events: Headache (25 mg QD) | Subjects with 1 or more Adverse events: Urinary tract infection (25 mg QD) | Subjects with 1 or more Adverse events: Cough (50 mg QD) | Subjects with 1 or more treatment-emergent adverse events leading to discontinuation of study agent (50 mg QD) | Subjects with 1 or more Adverse events: Upper respiratory tract infection (100 mg QD) | Subjects with 1 or more treatment-emergent adverse events leading to discontinuation of study agent (100 mg QD)
(22.0%): Subjects with 1 or more Adverse events: COVID-19 (25 mg BID)
(9.3%): Subjects with 1 or more Adverse events: Bronchitis (50 mg QD) | Subjects with 1 or more Adverse events: Diarrhea (50 mg QD)
(16.7%): Subjects with 1 or more Adverse events: COVID-19 (100 mg BID)
(65.7%): Subjects with 1 or more Adverse events [1]
(2.9%): Subjects with 1 or more Adverse events: Arthralgia [1] | Subjects with 1 or more Adverse events: Aspartate aminotransferase increased [1] | Subjects with 1 or more Adverse events: Bronchitis [1] | Subjects with 1 or more Adverse events: Diarrhea [1] | Subjects with 1 or more Adverse events: Influenza [1] | Subjects with 1 or more Serious adverse events [1] | Subjects with 1 or more Serious adverse events: Cerebrovascular accident [1]
0: Subjects with Mouth ulceration | Subjects with Tendonitis
(72.1%): Subjects with 1 or more Adverse events (100 mg QD)
(2.4%): Subjects with 1 or more Adverse events: Alanine aminotransferase increased (25 mg BID) | Subjects with 1 or more Adverse events: Aspartate aminotransferase increased (25 mg BID) | Subjects with 1 or more Adverse events: Urinary tract infection (25 mg BID) | Subjects with 1 or more Serious adverse events: Ligament injury (25 mg BID) | Subjects with 1 or more Serious adverse events: Tonsillar hypertrophy (25 mg BID) | Subjects with 1 or more Serious adverse events: Ventricular dysfunction (25 mg BID) | Subjects with 1 or more Adverse events: Diarrhea (100 mg BID) | Subjects with 1 or more Adverse events: Headache (100 mg BID) | Subjects with 1 or more Adverse events: Influenza (100 mg BID) | Subjects with 1 or more Serious adverse events (100 mg BID) | Subjects with 1 or more Serious adverse events: Uterine leiomyoma (100 mg BID) | Subjects with 1 or more treatment-emergent adverse events leading to discontinuation of study agent (100 mg BID)
(7.0%): Subjects with 1 or more Adverse events: Nasopharyngitis (25 mg QD) | Subjects with 1 or more treatment-emergent adverse events leading to discontinuation of study agent (25 mg QD) | Subjects with 1 or more Adverse events: Upper respiratory tract infection (50 mg QD) | Subjects with 1 or more Serious adverse events (50 mg QD) | Subjects with 1 or more Adverse events: Arthralgia (100 mg QD) | Subjects with 1 or more Adverse events: Cough (100 mg QD) | Subjects with 1 or more Serious adverse events (100 mg QD)
(78.0%): Subjects with 1 or more Adverse events (25 mg BID)
(55.8%): Subjects with 1 or more Adverse events (25 mg QD)
(5.7%): Subjects with 1 or more Adverse events: Alanine aminotransferase increased [1] | Subjects with 1 or more Adverse events: COVID-19 [1] | Subjects with 1 or more Adverse events: Urinary tract infection [1]
(25.6%): Subjects with 1 or more Adverse events: Nasopharyngitis (100 mg QD)
